Experimental data reported in PubChem BioAssay (NCI).
“And” between values parts separate entries of the source, which are not always exact repeats. Equal values may be shown once.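 The compound was tested at five concentrations on cells cultured in 96-well plates, with a 48-hour exposure period. At the GI50, growth is halved. At the TGI there is no net growth.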

Columns and labels:
Assay in all cases: NCI anticancer screen, dose series, 48 h
786-0 renal = tested on: 786-0 renal
A498 renal = tested on: A498 renal
A549 NSCLC = tested on: A549 NSCLC
ACHN renal = tested on: ACHN renal
BT-549 breast = tested on: BT-549 breast
CAKI-1 renal = tested on: CAKI-1 renal
CCRF-CEM leukemia = tested on: CCRF-CEM leukemia
COLO 205 colon = tested on: COLO 205 colon
DU-145 prostate = tested on: DU-145 prostate
EKVX NSCLC = tested on: EKVX NSCLC
HCC-2998 colon = tested on: HCC-2998 colon
HCT-116 colon = tested on: HCT-116 colon
HCT-15 colon = tested on: HCT-15 colon
HL-60(TB) leukemia = tested on: HL-60(TB) leukemia
HOP-62 NSCLC = tested on: HOP-62 NSCLC
HOP-92 NSCLC = tested on: HOP-92 NSCLC
HS 578T breast = tested on: HS 578T breast
HT29 colon = tested on: HT29 colon
IGROV1 ovarian = tested on: IGROV1 ovarian
KM12 colon = tested on: KM12 colon
M14 melanoma = tested on: M14 melanoma
MALME-3M melanoma = tested on: MALME-3M melanoma
MCF7 breast = tested on: MCF7 breast
MDA-MB-231 breast = tested on: MDA-MB-231 breast
MDA-MB-435 = tested on: MDA-MB-435
MDA-N = tested on: MDA-N
MOLT-4 leukemia = tested on: MOLT-4 leukemia
NCI-H226 lung = tested on: NCI-H226 lung
NCI-H23 lung = tested on: NCI-H23 lung
NCI-H460 lung = tested on: NCI-H460 lung
NCI-H522 lung = tested on: NCI-H522 lung
NCI/ADR-RES ovarian = tested on: NCI/ADR-RES ovarian
OVCAR-3 ovarian = tested on: OVCAR-3 ovarian
OVCAR-4 ovarian = tested on: OVCAR-4 ovarian
OVCAR-5 ovarian = tested on: OVCAR-5 ovarian
OVCAR-8 ovarian = tested on: OVCAR-8 ovarian
PC-3 prostate = tested on: PC-3 prostate
RPMI-8226 leukemia = tested on: RPMI-8226 leukemia
RXF 393 renal = tested on: RXF 393 renal
SF-268 CNS = tested on: SF-268 CNS
SF-295 CNS = tested on: SF-295 CNS
SF-539 CNS = tested on: SF-539 CNS
SK-MEL-2 melanoma = tested on: SK-MEL-2 melanoma
SK-MEL-28 melanoma = tested on: SK-MEL-28 melanoma
SK-MEL-5 melanoma = tested on: SK-MEL-5 melanoma
SK-OV-3 ovarian = tested on: SK-OV-3 ovarian
SN12C renal = tested on: SN12C renal
SNB-19 CNS = tested on: SNB-19 CNS
SNB-75 CNS = tested on: SNB-75 CNS
SR leukemia = tested on: SR leukemia
SW-620 colon = tested on: SW-620 colon
T-47D breast = tested on: T-47D breast
TK-10 renal = tested on: TK-10 renal
U251 CNS = tested on: U251 CNS
UACC-257 melanoma = tested on: UACC-257 melanoma
UACC-62 melanoma = tested on: UACC-62 melanoma
UO-31 renal = tested on: UO-31 renal

C=C1C(=O)OC2CC1C(OC(C)=O)C/C(C)=C/CC/C(C)=C\CCC2(C)O (stereo unspecified) was tested, and the TGI (786-0 renal) was 10.5 µM and 19.9 µM, the TGI (A498 renal) was 17.1 µM and 21.4 µM and the TGI (A549 NSCLC) was 33.2 µM and 51.1 µM. The TGI (ACHN renal) was 14.9 µM and 7.78 µM, the GI50 (BT-549 breast) was 4.31 µM and 2.05 µM and the TGI (BT-549 breast) was 15.5 µM and 5.35 µM. The TGI (CAKI-1 renal) was 14.2 µM and 9.91 µM, the GI50 (CCRF-CEM leukemia) was 0.469 µM and 2.36 µM and the TGI (COLO 205 colon) was 14.4 µM and > 100 µM. For the same compound, the TGI (DU-145 prostate) was 14.6 µM and 23.1 µM, the TGI (EKVX NSCLC) was 16 µM and 14 µM and the TGI (HCC-2998 colon) was 17.5 µM and 21.1 µM. For the same compound, the TGI (HCT-116 colon) was 12.2 µM and 7.66 µM, the TGI (HCT-15 colon) was 13.5 µM and 3.63 µM and the TGI (HL-60(TB) leukemia) was 2.64 µM. The TGI (HOP-62 NSCLC) was 35.4 µM and 31.7 µM, the TGI (HOP-92 NSCLC) was 13.2 µM and 9.51 µM and the TGI (HS 578T breast) was 25.1 µM and 26.2 µM. For the same compound, the GI50 (HT29 colon) was 1.69 µM and 4.87 µM, the TGI (HT29 colon) was 6.44 µM and 18 µM and the GI50 (IGROV1 ovarian) was 3.34 µM and 6.68 µM. The TGI (IGROV1 ovarian) was 14.5 µM and 20.1 µM, the GI50 (KM12 colon) was 11.6 µM and 5.11 µM and the TGI (KM12 colon) was 32.3 µM and 19.4 µM. The TGI (M14 melanoma) was > 36.9 µM and 29.6 µM, the TGI (MALME-3M melanoma) was 15 µM and the TGI (MCF7 breast) was 16.2 µM and 26.3 µM. For the same compound, the TGI (MDA-MB-231 breast) was 22.5 µM and 22.2 µM, the TGI (MDA-MB-435) was 18.6 µM and the TGI (MDA-N) was 15.9 µM and 12.3 µM. For the same compound, the TGI (MOLT-4 leukemia) was 6.23 µM and 7.81 µM, the TGI (NCI-H226 lung) was 12.1 µM and 34.2 µM and the GI50 (NCI-H23 lung) was 7.77 µM and 1.84 µM. For the same compound, the TGI (NCI-H23 lung) was 22.4 µM and 4.44 µM, the TGI (NCI-H460 lung) was 14.1 µM and 8.22 µM and the TGI (NCI-H522 lung) was 3.16 µM and 3.13 µM. For the same compound, the TGI (NCI/ADR-RES ovarian) was 15.4 µM and 17.4 µM, the TGI (OVCAR-3 ovarian) was 21.1 µM and 51.2 µM and the TGI (OVCAR-4 ovarian) was 21 µM and 19.2 µM. For the same compound, the TGI (OVCAR-5 ovarian) was 46.3 µM and 30 µM, the TGI (OVCAR-8 ovarian) was 14.6 µM and 12.6 µM and the GI50 (PC-3 prostate) was 6.08 µM and 19.9 µM. The TGI (PC-3 prostate) was 19.6 µM and > 100 µM, the TGI (RPMI-8226 leukemia) was 7.9 µM and 7.55 µM and the TGI (RXF 393 renal) was 14 µM. The TGI (SF-268 CNS) was 22.9 µM and 20.3 µM, the TGI (SF-295 CNS) was 46.8 µM and 37 µM and the TGI (SF-539 CNS) was 18.4 µM and 12.7 µM. For the same compound, the GI50 (SK-MEL-2 melanoma) was 8.67 µM and 21.4 µM, the TGI (SK-MEL-2 melanoma) was 22.5 µM and > 100 µM and the TGI (SK-MEL-28 melanoma) was 11.2 µM and 15.7 µM. The GI50 (SK-MEL-5 melanoma) was 6.82 µM and 2.88 µM, the TGI (SK-MEL-5 melanoma) was 24 µM and 10.8 µM and the TGI (SK-OV-3 ovarian) was 61.7 µM and 46.6 µM. The TGI (SN12C renal) was 11.3 µM and 16.6 µM, the TGI (SNB-19 CNS) was 40.1 µM and 32 µM and the TGI (SNB-75 CNS) was 29.7 µM and 24.3 µM. For the same compound, the TGI (SR leukemia) was 4.85 µM, the TGI (SW-620 colon) was 12.6 µM and 8.91 µM and the TGI (T-47D breast) was 14.6 µM and 62.7 µM. The TGI (TK-10 renal) was 12.4 µM and 16.1 µM, the TGI (U251 CNS) was 25.2 µM and 26.7 µM and the TGI (UACC-257 melanoma) was 18.7 µM and 12.7 µM. For the same compound, the GI50 (UACC-62 melanoma) was 11.3 µM and 2.89 µM, the TGI (UACC-62 melanoma) was 26.1 µM and 12.9 µM and the TGI (UO-31 renal) was 18.3 µM and 12.3 µM.
